# According to US8673910B2, “Proteasome inhibitors for selectively inducing apoptosis in cancer cells” (H. Lee Moffitt Cancer Center and Research Institute, priority 2008, dated 2014):
row,SMILES,melting point
1,"Cc1cc(C)nc(NS(=O)(=O)c2ccc(NC3=C(Cl)C(=O)c4ccccc4C3=O)cc2)n1 [Compound 2g, 4-(3-chloro-1,4-dioxo-1,4-dihydronaphthalen-2-ylamino)-N-(4,6-dimethylpyrimidin-2-yl)benzenesulfonamide]",210 °C (dec.)
2,"CN(C1=C(Cl)C(=O)c2ccccc2C1=O)c1ccc(S(=O)(=O)Nc2ccccn2)cc1 [Compound 6a, 4-((3-chloro-1,4-dioxo-1,4-dihydronaphthalen-2-yl)(methyl)amino)-N-(pyridin-2-yl)benzenesulfonamide]",152 to 154 °C
3,"CN(Cc1ccccc1)C1=C(Nc2ccc(S(=O)(=O)Nc3ccccn3)cc2)C(=O)c2ccccc2C1=O [Compound 3b, 4-(3-(benzyl(methyl)amino)-1,4-dioxo-1,4-dihydronaphthalen-2-ylamino)-N-(pyridin-2-yl)-benzenesulfonamide]",135 to 140 °C
4,"CN(C)C1=C(Nc2ccc(S(=O)(=O)Nc3ccccn3)cc2)C(=O)c2ccccc2C1=O [Compound 3a, 4-(3-(dimethylamino)-1,4-dioxo-1,4-dihydronaphthalen-2-ylamino)-N-(pyridin-2-yl)-benzenesulfonamide]",118 to 120 °C
5,"O=C(NS(=O)(=O)c1ccc(NC2=CC(=O)c3ccccc3C2=O)cc1)c1ccccc1 [Compound 2p, N-(4-(1,4-dioxo-1,4-dihydronaphthalen-2-ylamino)phenylsulfonyl)benzamide]",294 to 296 °C
6,"Cc1ccnc(NS(=O)(=O)c2ccc(NC3=C(Cl)C(=O)c4ccccc4C3=O)cc2)n1 [Compound 2j, 4-(3-chloro-1,4-dioxo-1,4-dihydronaphthalen-2-ylamino)-N-(4-methylpyrimidin-2-yl)-benzenesulfonamide]",246 to 248 °C
7,"Cc1ccc(CN(C2=C(Cl)C(=O)c3ccccc3C2=O)c2ccc(S(=O)(=O)Nc3ccccn3)cc2)cc1 [Compound 6g, 4-((3-chloro-1,4-dioxo-1,4-dihydronaphthalen-2-yl)(4-methylbenzyl)amino)-N-(pyridin-2-yl)benzenesulfonamide]",99 to 101 °C
8,"O=C1C(Nc2ccc(S(=O)(=O)Nc3ccccn3)cc2)=C(N2CCOCC2)C(=O)c2ccccc21 [Compound 3e, 4-(3-morpholino-1,4-dioxo-1,4-dihydronaphthalen-2-ylamino)-N-(pyridin-2-yl)benzenesulfonamide]",220 to 222 °C
9,"O=C(NS(=O)(=O)c1ccc(NC2=C(Cl)C(=O)c3ccccc3C2=O)cc1)c1ccccc1 [Compound 2c, N-(4-(3-chloro-1,4-dioxo-1,4-dihydronaphthalen-2-ylamino)phenylsulfonyl)benzamide]",216 to 217 °C
10,"COc1cc(NS(=O)(=O)c2ccc(NC3=C(C)C(=O)c4ccccc4C3=O)cc2)nc(OC)n1 [Compound 2n, N-(2,6-dimethoxypyrimidin-4-yl)-4-(3-methyl-1,4-dioxo-1,4-dihydronaphthalen-2-ylamino)-benzenesulfonamide]",255 to 257 °C
11,"CC1=C(Nc2ccc(S(=O)(=O)Nc3ccccn3)cc2)C(=O)c2ccccc2C1=O [Compound 2k, 4-(3-methyl-1,4-dioxo-1,4-dihydronaphthalen-2-ylamino)-N-(pyridin-2-yl)benzenesulfonamide]",220 to 222 °C
12,"O=C1C(Cl)=C(N(Cc2ccc([N+](=O)[O-])cc2)c2ccc(S(=O)(=O)Nc3ccccn3)cc2)C(=O)c2ccccc21 [Compound 6e, 4-((3-chloro-1,4-dioxo-1,4-dihydronaphthalen-2-yl)(4-nitrobenzyl)amino)-N-(pyridin-2-yl)benzenesulfonamide]",80 to 82 °C
13,"O=C1C=C(Nc2ccc(S(=O)(=O)Nc3ccccn3)cc2)C(=O)c2ccccc21 [Compound 2r, 4-(1,4-dioxo-1,4-dihydronaphthalen-2-ylamino)-N-(pyridin-2-yl)benzenesulfonamide]",286 °C (dec.)
14,"CN1CCN(C2=C(Nc3ccc(S(=O)(=O)Nc4ccccn4)cc3)C(=O)c3ccccc3C2=O)CC1 [Compound 3c, 4-(3-(4-methylpiperazin-1-yl)-1,4-dioxo-1,4-dihydronaphthalen-2-ylamino)-N-(pyridin-2-yl)-benzenesulfonamide]",222 to 224 °C
15,"COc1cc(NS(=O)(=O)c2ccc(NC3=C(Cl)C(=O)c4ccccc4C3=O)cc2)nc(OC)n1 [Compound 2i, 4-(3-chloro-1,4-dioxo-1,4-dihydronaphthalen-2-ylamino)-N-(2,6-dimethoxypyrimidin-4-yl)-benzenesulfonamide]",220 to 222 °C
16,"COc1cnc(NS(=O)(=O)c2ccc(NC3=C(C)C(=O)c4ccccc4C3=O)cc2)nc1 [Compound 2m, N-(5-methoxypyrimidin-2-yl)-4-(3-methyl-1,4-dioxo-1,4-dihydronaphthalen-2-ylamino)-benzenesulfonamide]",215 to 217 °C
17,"N=C(N)NS(=O)(=O)c1ccc(NC2=C(Cl)C(=O)c3ccccc3C2=O)cc1 [YG1-084, N-carbamimidoyl-4-(3-chloro-1,4-dioxo-1,4-dihydronaphthalen-2-ylamino)benzene-sulfonamide]",294 to 295 °C
18,"COc1cnc(NS(=O)(=O)c2ccc(NC3=C(Cl)C(=O)c4ccccc4C3=O)cc2)nc1 [Compound 2e, 4-(3-chloro-1,4-dioxo-1,4-dihydronaphthalen-2-ylamino)-N-(5-methoxypyrimidin-2-yl)benzenesulfonamide]",269 to 271 °C
19,"O=C1C(Cl)=C(N(Cc2ccc(C(F)(F)F)cc2)c2ccc(S(=O)(=O)Nc3ccccn3)cc2)C(=O)c2ccccc21 [Compound 6h, 4-((3-chloro-1,4-dioxo-1,4-dihydronaphthalen-2-yl)(4-(trifluoromethyl)benzyl)amino)-N-(pyridin-2-yl)benzenesulfonamide]",157 to 159 °C
20,"CCCCN(C1=C(Cl)C(=O)c2ccccc2C1=O)c1ccc(S(=O)(=O)Nc2ccccn2)cc1 [Compound 6c, 4-(butyl(3-chloro-1,4-dioxo-1,4-dihydronaphthalen-2-yl)amino)-N-(pyridin-2-yl)benzenesulfonamide]",181 to 183 °C
21,"O=C1C(Cl)=C(N(Cc2ccc3ccccc3c2)c2ccc(S(=O)(=O)Nc3ccccn3)cc2)C(=O)c2ccccc21 [Compound 6f, 4-((3-chloro-1,4-dioxo-1,4-dihydronaphthalen-2-yl)(naphthalen-2-ylmethyl)amino)-N-(pyridin-2-yl)benzenesulfonamide]",165 to 167 °C
22,"CCN(C1=C(Cl)C(=O)c2ccccc2C1=O)c1ccc(S(=O)(=O)Nc2ccccn2)cc1 [Compound 6b, 4-((3-chloro-1,4-dioxo-1,4-dihydronaphthalen-2-yl)(ethyl)amino)-N-(pyridin-2-yl)benzenesulfonamide]",180 to 182 °C
23,"O=C1C(Cl)=C(N(Cc2ccccc2)c2ccc(S(=O)(=O)Nc3ccccn3)cc2)C(=O)c2ccccc21 [Compound 6d, 4-(benzyl(3-chloro-1,4-dioxo-1,4-dihydronaphthalen-2-yl)amino)-N-(pyridin-2-yl)benzenesulfonamide]",78 to 80 °C
24,"CC1=C(Nc2ccc(S(=O)(=O)NC(=O)c3ccccc3)cc2)C(=O)c2ccccc2C1=O [Compound 2l, N-(4-(3-methyl-1,4-dioxo-1,4-dihydronaphthalen-2-ylamino)phenylsulfonyl)benzamide]",235 to 237 °C

# Now from value to compound:
row,melting point,SMILES
1,213 to 216 °C,"COc1cccc(NS(=O)(=O)c2ccc(NC3=C(Cl)C(=O)c4ccccc4C3=O)cc2)c1 [Compound 13e, 4-(3-chloro-1,4-dioxo-1,4-dihydro-naphthalen-2-ylamino)-N-(3-methoxy-phenyl)-benzenesulfonamide]"
2,233 to 234 °C,"COc1ccc(NS(=O)(=O)c2ccc(NC3=C(Cl)C(=O)c4ccccc4C3=O)cc2)cc1 [Compound 13f, 4-(3-chloro-1,4-dioxo-1,4-dihydro-naphthalen-2-ylamino)-N-(4-methoxy-phenyl)-benzenesulfonamide]"
3,257 to 260 °C,"Cc1ccc(NS(=O)(=O)c2ccc(NC3=C(Cl)C(=O)c4ccccc4C3=O)cc2)cc1 [Compound 13g, 4-(3-chloro-1,4-dioxo-1,4-dihydro-naphthalen-2-ylamino)-N-p-tolyl-benzenesulfonamide]"
4,197 to 200 °C,"COc1cc(NC2=C(Cl)C(=O)c3ccccc3C2=O)ccc1S(=O)(=O)Nc1ccccc1C [Compound 13h, 4-(3-chloro-1,4-dioxo-1,4-dihydro-naphthalen-2-ylamino)-2-methoxy-N-o-tolyl-benzenesulfonamide]"
5,186 to 189 °C,"COc1cc(NC2=C(Cl)C(=O)c3ccccc3C2=O)ccc1S(=O)(=O)Nc1ccc(C)cc1 [Compound 13i, 4-(3-chloro-1,4-dioxo-1,4-dihydro-naphthalen-2-ylamino)-2-methoxy-N-p-tolyl-benzenesulfonamide]"
6,264 to 267 °C,"COc1cc(NC2=C(Cl)C(=O)c3ccccc3C2=O)ccc1S(=O)(=O)Nc1cccc(C)c1 [Compound 13k, 4-(3-chloro-1,4-dioxo-1,4-dihydro-naphthalen-2-ylamino)-2-methoxy-N-m-tolyl-benzenesulfonamide]"
7,198 to 201 °C,"COc1ccccc1NS(=O)(=O)c1ccc(NC2=C(Cl)C(=O)c3ccccc3C2=O)cc1 [Compound 13d, 4-(3-chloro-1,4-dioxo-1,4-dihydro-naphthalen-2-ylamino)-N-(2-methoxy-phenyl)-benzenesulfonamide]"
8,234 to 237 °C,"Cc1cccc(NS(=O)(=O)c2ccc(NC3=C(Cl)C(=O)c4ccccc4C3=O)cc2)c1 [Compound 13c, 4-(3-chloro-1,4-dioxo-1,4-dihydro-naphthalen-2-ylamino)-N-m-tolyl-benzenesulfonamide]"
9,165 to 167 °C,"COc1ccc(NS(=O)(=O)c2ccc(NC3=C(Cl)C(=O)c4ccccc4C3=O)cc2OC)cc1 [Compound 13j, 4-(3-chloro-1,4-dioxo-1,4-dihydro-naphthalen-2-ylamino)-2-methoxy-N-(4-methoxy-phenyl)-benzenesulfonamide]"
10,220 to 223 °C,"O=C1C(Cl)=C(Nc2ccc(S(=O)(=O)Nc3ccccc3)cc2)C(=O)c2ccccc21 [Compound 13b, 4-(3-chloro-1,4-dioxo-1,4-dihydro-naphthalen-2-ylamino)-N-phenyl-benzenesulfonamide]"
